# Experimental data as given in patent US20200009105A1, “PROSTACYCLIN, PROSTACYCLIN ANALOGS, AND METHODS OF TREATING OR PREVENTING REJECTION OF SOLID ORGAN TRANSPLANTS” (VANDERBILT UNIVERSITY, priority 2017, published 2020).
# Several values for one entry are separate records, joined by “and”; a condition that tells them apart may be missing. Equal values may be shown once.
# What was measured:
# lung DCs = conditions: mouse model; cited from earlier work
# DCs = conditions: cited from earlier work
# IP = IP (Homo sapiens, UniProt P43119); conditions: compared with treprostinil; cited from earlier work
# Th2 cells = conditions: in vitro, Th2 cells differentiated under IL-4 and anti-IFN-γ; cited from earlier work
# [1] = in vivo; cited from earlier work
# [2] = oral administration; cited from earlier work
# [3] = cited from earlier work
# [4] = rat, chronic administration; cited from earlier work
# PGE2 receptor EP2 = PGE2 receptor EP2 (Homo sapiens, UniProt P43116); conditions: cited from earlier work
# [5] = system: naïve CD4^+ T cells of WT and IP KO mice; assay: IL-33-induced type 2 cytokine production by naive CD4+ T cells (ELISA of culture supernatant); type: cell-based, mouse
# Experimental: (§1) CD4^+ T cells were purified from the splenic cells of WT, or IP KO mice by a mouse naive CD4^+ T cell isolation kit II (Miltenyi Biotec, Auburn, Calif.). The purified CD4^+CD62L^+ T cell population contains 97.5% CD3^+CD4^+ cells as determined by flow cytometry. The purified CD4 T cells were resuspended at 1×10^6 cells/ml in RPMI 1640 medium (Mediatech, Herndon, Va.) supplemented with 10% FBS (HyClone, Logan, Utah), 4 mM of L-glutamine, 1 mM of sodium pyruvate, […] of 2-ME, 10 mM of HEPES, 100 U/ml penicillin, and 100 μg/ml streptomycin. The cells were stimulated with plate-bound anti-CD3 (10 μg/ml) and anti-CD28 (2 μg/ml; BD Biosciences, San Diego, Calif.) in 96-well flat-bottom plates and treated with IL-33 (20 ng/ml) plus cicaprost (a generous gift provided by Dr. Manuela Huebner, Bayer HealthCare, Berlin, Germany) at various concentrations or vehicle (water) control. The cells were cultured for 3 days. For T cell proliferation experiments, naive CD4^+ T cells were stained with 1 μM CFSE before cell culture and cicaprost treatment.
# (§2) Cell culture supernatant was collected at day 2 for IL-2 measurement because IL-2 production by activated CD4^+ T cells peak at day 2 (unpublished data). At day 3, the culture supernatant was harvested for IL-4, IL-5 and IL-13 measurement. At day 2, the cells were harvested and the cell lysate was prepared for p-STAT5 measurement.
# (§3) IL-2, IL-4, IL-5, and IL-13 in the culture supernatant were measured by DuoSet ELISA kits from R&D Systems according to the manufacturer's instructions. Phosphorylated STAT5 (p-STAT5) was measured by phosphor-STAT5A/B (Tyr694/Tyr699) InstantOne™ ELISA kit (Affymetrixes). Measurements below the limit of detection were assigned a value of half the lower limit of detection for purposes of statistical analyses.
# To determine the effect of PGI2 signaling on IL-33-induced Th2 differentiation, naïve CD4^+ T cells of WT and IP KO mice, both on BALB/c background, were activated with anti-CD3 and anti-CD28 either with or without IL-33 and treated with cicaprost or vehicle for 3 days.
# CD4^+ T cells [6] = assay: IL-2 production by CD4+ T cells (ELISA, day 2 supernatant); type: cell-based, mouse; conditions: WT CD4+ T cells, IL-33, day 2
# Experimental: (§4) CD4^+ T cells were purified from the splenic cells of WT, or IP KO mice by a mouse naive CD4^+ T cell isolation kit II (Miltenyi Biotec, Auburn, Calif.). The purified CD4^+CD62L^+ T cell population contains 97.5% CD3^+CD4^+ cells as determined by flow cytometry. The purified CD4 T cells were resuspended at 1×10^6 cells/ml in RPMI 1640 medium (Mediatech, Herndon, Va.) supplemented with 10% FBS (HyClone, Logan, Utah), 4 mM of L-glutamine, 1 mM of sodium pyruvate, […] of 2-ME, 10 mM of HEPES, 100 U/ml penicillin, and 100 μg/ml streptomycin. […]
# IL-2, IL-4, IL-5, and IL-13 in the culture supernatant were measured by DuoSet ELISA kits from R&D Systems according to the manufacturer's instructions. Phosphorylated STAT5 (p-STAT5) was measured by phosphor-STAT5A/B (Tyr694/Tyr699) InstantOne™ ELISA kit (Affymetrixes). […]
# In vitro activation of mouse naïve CD4^+ T cells results in the expression of IL-2, a growth factor critical for cell survival and proliferation (19). To investigate whether cicaprost inhibits IL-33-induced type 2 cytokine production by suppressing CD4^+ T cell IL-2 production and cell activation, IL-2 levels were measured in the culture supernatant.
# NFAT = NFAT function assay (NFAT-luciferase reporter lentiviral vector); type: cell-based, mouse; conditions: WT cells, after 3 days of cell culture
# Experimental: To determine NFAT activation, a Cignal Lenti NFAT reporter (luc) kit (Qiagen, Hilden, Germany), was used to transduce naïve CD4^+ T cells. CD4^+ T cells (10^5) of WT and IP KO mice were transduced with 2×10^5 transduction units of lentiviral vector (MOI=2) and 30 μg transduction reagent in 60 μl of transduction medium without antibiotics for 24 h in 96 well plates coated with anti-CD3 and anti-CD28. The cells were then pooled, washed, seeded and treated with IL-33 plus either cicaprost or vehicle. After culture for 2 more days in the same plates, the cells were harvested and the cell lysate was used for luciferase assay with Luciferase Assay System with Reporter Lysis Buffer (Promega, Madison, Wis.). The luciferase activity indicates the levels of NFAT activation. To determine whether the suppressive effect of cicaprost on IL-2 production is associated with the inhibition of NFAT, a transcription factor that binds to the IL-2 gene promoter to activate IL-2 gene expression, an NFAT function assay was performed with an NFAT-luciferase reporter lentiviral vector system.
# CD25 = CD25 surface expression on CD4+ T cells by flow cytometry; type: cell-based, mouse; conditions: 3 days, vs vehicle control
# Experimental: as §1
# (§5) At day 3 of cell culture, the cells were harvested for flow cytometric staining with fluorochrome-labeled antibodies against CD4^+ (Biolegend, San Diego, Calif.), Gata3 (Affymetrix, Santa Clara, Calif.), CD25 (BD Biosciences, San Jose, Calif.), or TSLPR (R&D Systems, Minneapolis, Minn.). An LSR II flow cytometer (BD Biosciences) was used for flow cytometry and the data were analyzed with FlowJo software (FlowJo, LLC, Ashland Oreg.). For cell proliferation assay, CFSE intensity of the cultured cells was determined at day 3 by flow cytometry. Cell division index was calculated with FlowJo software. At day 3, the cells were stained with the cell viability dye 4,6-diamidino-2-phenylindole (DAPI), and 123count™ eBeads (Affymetrix) were added to the cell solution for live cell counting by flow cytometry.
# (§6) To determine whether cicaprost attenuates the IL-2 signaling pathway, CD4^+ T cells activated and treated with either cicaprost or vehicle for 3 days were stained with fluorochrome-labeled anti-CD25 antibody and analyzed by flow cytometry.
# CD4^+ T cells [7] = assay: CD4+ T cell proliferation (CFSE dilution) and live cell counting; type: cell-based, mouse; conditions: WT CD4+ T cells, 1000 nM, IL-33, day 3
# Experimental: as §4
# as §5, with “At day 3, the cells were stained with the cell viability dye 4,6-diamidino-2-phenylindole (DAPI), and 123count™ eBeads (Affymetrix) were added to the cell solution for live cell counting by flow cytometry.” left out
# To further analyze the effect of cicaprost on cell proliferation, naïve CD4^+ T cells were CFSE-labeled, activated with anti-CD3 and anti-CD28, and treated with IL-33 plus either vehicle or cicaprost. Cell proliferation was determined by CFSE dilution.
# [8] = system: type 2 innate lymphoid cells (ILC2); conditions: cited from earlier work
# ILC2 = conditions: WT mice; cited from earlier work
# CD4^+ T cells [9] = assay: Intracellular cytokine staining for flow cytometry of IL-33-stimulated T cells; type: cell-based, mouse; conditions: in the presence of IL-33, 3 days, vs vehicle
# Experimental: as §4
# as §5, with “At day 3, the cells were stained with the cell viability dye 4,6-diamidino-2-phenylindole (DAPI), and 123count™ eBeads (Affymetrix) were added to the cell solution for live cell counting by flow cytometry.” left out
# TSLPR = TSLPR expression on T cells by flow cytometry; type: cell-based, mouse; conditions: WT or IP KO T cell culture in the presence of IL-33 (data not shown)
# Experimental: as §5, §6
# Gata3 = Gata3 expression in CD4+ T cells by flow cytometry; type: cell-based, mouse; conditions: WT mice, 1000 nM, IL-33, 3 days
# Experimental: as §1
# as §5, with “At day 3, the cells were stained with the cell viability dye 4,6-diamidino-2-phenylindole (DAPI), and 123count™ eBeads (Affymetrix) were added to the cell solution for live cell counting by flow cytometry.” left out
# The differentiation of naïve CD4^+ T cells into Th2 cells under IL-4 culture conditions requires the expression of the transcription factor Gata3 (18). To investigate whether Gata3 plays a role in the inhibitory effect of cicaprost on IL-33-induced type 2 cytokine production, the expression of Gata3 in CD4^+ T cells activated with IL-33 and treated with cicaprost at various concentrations or vehicle for 3 days was determined. […]
# STAT5 = assay: Phosphorylated STAT5 in CD4+ T cell lysate (ELISA); type: cell-based, mouse; conditions: WT cells, 2 days, IL-33
# Experimental: as §2, §3
# Binding of IL-2 to IL-2 receptor leads to the activation of JAK1 and JAK3 and the activation of the downstream transcription factors STAT5 (21). To test whether cicaprost downregulates IL-2 receptor signaling, the levels of phosphorylated STAT5 were measured in CD4^+ T cells harvested 2 days after the cell activation and treatment with IL-33 plus either vehicle or cicaprost.
# [10] = IP KO CD4+ T cells, anti-CD3/anti-CD28 + IL-33, 3 days
# [11] = WT CD4+ T cells, anti-CD3/anti-CD28 + IL-33, 3 days
# [12] = in the presence of either 10 ng/ml or 50 ng/ml exogenous IL-2, IL-33, 3 days
# Sequence of IP (P43119 whole entry): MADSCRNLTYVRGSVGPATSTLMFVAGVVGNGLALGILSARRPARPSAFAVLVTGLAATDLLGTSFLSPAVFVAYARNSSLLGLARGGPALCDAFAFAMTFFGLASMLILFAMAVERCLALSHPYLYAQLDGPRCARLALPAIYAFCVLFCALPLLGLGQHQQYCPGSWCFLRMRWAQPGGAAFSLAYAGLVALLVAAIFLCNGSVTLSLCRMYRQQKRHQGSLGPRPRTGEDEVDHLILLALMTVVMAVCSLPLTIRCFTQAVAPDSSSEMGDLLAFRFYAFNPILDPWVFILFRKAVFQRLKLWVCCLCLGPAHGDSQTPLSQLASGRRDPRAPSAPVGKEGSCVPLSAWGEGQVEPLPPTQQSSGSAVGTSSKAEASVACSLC
# Sequence of PGE2 receptor EP2 (P43116 whole entry): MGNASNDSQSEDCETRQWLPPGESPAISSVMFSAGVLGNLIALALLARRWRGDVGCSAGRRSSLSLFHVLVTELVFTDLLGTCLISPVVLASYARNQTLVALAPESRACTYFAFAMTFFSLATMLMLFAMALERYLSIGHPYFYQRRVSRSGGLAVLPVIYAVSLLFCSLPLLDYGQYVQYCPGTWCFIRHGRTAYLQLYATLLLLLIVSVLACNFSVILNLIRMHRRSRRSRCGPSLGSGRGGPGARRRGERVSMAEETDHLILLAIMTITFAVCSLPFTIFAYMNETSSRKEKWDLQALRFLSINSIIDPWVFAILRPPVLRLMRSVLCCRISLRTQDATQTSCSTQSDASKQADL
compound,measurement,setting,value
CC#CCC(C)[C@H](O)/C=C/[C@@H]1[C@H]2C/C(=C/CCCC(=O)O)C[C@H]2C[C@H]1O (stereo partly drawn) [Iloprost],maturation and migration of lung DCs to the mediastinal LNs,lung DCs,inhibited
same,LPS-induced expression of CD40 by DCs,DCs,suppressed
same,LPS-induced expression of CD86 by DCs,DCs,suppressed
same,LPS-induced expression of MHC class II molecules by DCs,DCs,suppressed
same,ability of DCs to stimulate antigen-specific CD4 T cell proliferation,DCs,inhibited
same,ability of DCs to stimulate production of the Th2 cytokine IL-5,DCs,inhibited
same,ability of DCs to stimulate production of the Th2 cytokine IL-13,DCs,inhibited
same,specificity for IP,IP,greater specificity for IP than treprostinil
same,production of effector cytokine IL-4,Th2 cells,inhibited
same,production of effector cytokine IL-5,Th2 cells,inhibited
same,safety of administration to pulmonary hypertension patients,[1],safe
same,iloprost reaching the systemic circulation,[2],less than 20%
same,half-life,[3],13 min
"CCCCC[C@H](O)/C=C/[C@@H]1[C@H]2C/C(=C/CCCC(=O)O)O[C@H]2C[C@H]1O [PGI2, prostacyclin]",half-life (biologic half-life),[3],46 seconds and 60-90 seconds
CCCCC[C@H](O)CC[C@@H]1[C@H]2Cc3cccc(OCC(=O)O)c3C[C@H]2C[C@H]1O [Treprostinil],degree of experimentally-induced pulmonary hypertension,[4],decreasing
same,activation of PGE2 receptor EP2,PGE2 receptor EP2,also activated
same,safety of administration to pulmonary hypertension patients,[1],safely used
same,half-life compared with epoprostenol,[3],longer
CCC#CC[C@H](C)[C@H](O)C#C[C@@H]1[C@H]2C/C(=C/COCC(=O)O)C[C@H]2C[C@H]1O [cicaprost],IL-4 production,[5]; [10],did not change
same,IL-5 production,[5]; [10],did not change
same,IL-13 production,[5]; [10],did not change
same,IL-4 production,[5]; [11],dose dependently decreased
same,IL-5 production,[5]; [11],dose dependently decreased
same,IL-13 production,[5]; [11],dose dependently decreased
same,IL-5 production,[5]; [12],still significantly inhibited
same,IL-13 production,[5]; [12],still significantly inhibited
same,IL-2 production,CD4^+ T cells [6],dose-dependently suppressed
same,NFAT function (luciferase activity),NFAT,significantly suppressed
same,CD25 mean fluorescence intensity,CD25,dose-dependently decreased
same,percentages of CD25 expressing cells,CD25,dose-dependently decreased
same,total numbers of CD25 expressing cells,CD25,dose-dependently decreased
same,cell division index,CD4^+ T cells [7],significantly decreased
same,total number of live cells,CD4^+ T cells [7],significantly decreased
same,LPS-induced expression of CD40 by DCs,DCs,suppressed
same,LPS-induced expression of CD86 by DCs,DCs,suppressed
same,LPS-induced expression of MHC class II molecules by DCs,DCs,suppressed
same,ability of DCs to stimulate antigen-specific CD4 T cell proliferation,DCs,inhibited
same,ability of DCs to stimulate production of the Th2 cytokine IL-5,DCs,inhibited
same,ability of DCs to stimulate production of the Th2 cytokine IL-13,DCs,inhibited
same,IL-33-induced cytokine responses of ILC2,[8],inhibited
same,ILC2 response,ILC2,inhibited
same,total numbers of IL-4+ T cells,CD4^+ T cells [9],dose-dependently decreased
same,total numbers of IL-13+ T cells,CD4^+ T cells [9],dose-dependently decreased
same,TSLPR MFI,TSLPR,did not change
same,percentages of TSLPR expressing cells,TSLPR,did not change
same,Gata3 mean fluorescence intensity,Gata3,significantly decreased
same,percentages of Gata3-expressing CD4+ T cells,Gata3,significantly decreased
same,total number of Gata3-expressing CD4+ T cells,Gata3,significantly decreased
same,STAT5 phosphorylation,STAT5,dose-dependently attenuated
same,production of effector cytokine IL-4,Th2 cells,inhibited
same,production of effector cytokine IL-5,Th2 cells,inhibited
